Measurements published in ChEMBL document CHEMBL4393671, “Design of a Cyclin G Associated Kinase (GAK)/Epidermal Growth Factor Receptor (EGFR) Inhibitor Set to Interrogate the Relationship of EGFR and GAK in Chordoma” (J Med Chem, 2019).
Activity calls are given as the source filed them. The rule behind the calls is not given here.

Assays:
cells [1] = format: functional, cell-based; settings: Homo sapiens, UCH1, 72 h
Description: Antiproliferative activity against human UCH1 cells measured after 72 hrs by alamar blue assay

cells [2] = format: functional, cell-based; settings: Homo sapiens, UCH2, 72 h
Description: Antiproliferative activity against human UCH2 cells measured after 72 hrs by alamar blue assay

[3] = target: T1, Epidermal growth factor receptor (Homo sapiens, UniProt P00533);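 as to IC50: human A431 cells pretreated 90 min, then EGF stimulated, sandwich ELISA measured decrease in EGF-induced receptor autophosphorylation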;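 as to Kd: KINOMEscan competition binding with recombinant partial wild-type human EGFR (residues R669–V1011) produced in bacteria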
T1 sequence (P00533 whole entry, the tested form may be a part): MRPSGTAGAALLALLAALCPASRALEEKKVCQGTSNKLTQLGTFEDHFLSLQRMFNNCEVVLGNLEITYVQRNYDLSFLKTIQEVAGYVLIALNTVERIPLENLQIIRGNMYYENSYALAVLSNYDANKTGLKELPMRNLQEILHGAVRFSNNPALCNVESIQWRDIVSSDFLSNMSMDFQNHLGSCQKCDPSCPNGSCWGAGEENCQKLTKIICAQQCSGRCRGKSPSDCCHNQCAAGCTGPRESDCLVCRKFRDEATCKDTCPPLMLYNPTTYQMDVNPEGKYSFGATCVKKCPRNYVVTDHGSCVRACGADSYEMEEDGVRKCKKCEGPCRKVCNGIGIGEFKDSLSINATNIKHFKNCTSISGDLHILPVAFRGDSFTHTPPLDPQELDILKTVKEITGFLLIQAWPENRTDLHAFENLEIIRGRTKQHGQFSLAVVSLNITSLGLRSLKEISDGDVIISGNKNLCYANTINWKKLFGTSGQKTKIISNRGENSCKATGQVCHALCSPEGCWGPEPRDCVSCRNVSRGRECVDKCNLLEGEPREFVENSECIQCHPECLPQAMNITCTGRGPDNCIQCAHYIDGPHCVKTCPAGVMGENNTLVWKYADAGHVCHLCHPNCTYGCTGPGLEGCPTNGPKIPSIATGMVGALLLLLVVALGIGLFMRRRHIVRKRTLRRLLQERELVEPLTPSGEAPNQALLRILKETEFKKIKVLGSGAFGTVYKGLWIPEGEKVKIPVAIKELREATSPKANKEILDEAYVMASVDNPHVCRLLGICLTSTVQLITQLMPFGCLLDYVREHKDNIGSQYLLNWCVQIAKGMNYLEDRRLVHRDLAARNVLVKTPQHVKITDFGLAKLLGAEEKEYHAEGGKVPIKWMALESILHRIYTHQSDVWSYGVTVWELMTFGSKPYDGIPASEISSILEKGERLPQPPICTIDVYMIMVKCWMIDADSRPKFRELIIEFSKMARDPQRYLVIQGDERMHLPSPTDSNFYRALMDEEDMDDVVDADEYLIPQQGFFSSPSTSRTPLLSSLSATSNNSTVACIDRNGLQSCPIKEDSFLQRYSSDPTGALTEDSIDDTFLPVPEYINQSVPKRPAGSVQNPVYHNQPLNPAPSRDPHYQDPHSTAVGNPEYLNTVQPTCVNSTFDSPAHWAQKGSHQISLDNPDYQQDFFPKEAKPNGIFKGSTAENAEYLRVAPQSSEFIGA
Description: Binding affinity to wild-type human partial length EGFR (R669 to V1011 residues) expressed in bacterial expression system by Kinomescan method

[4] = target: T2, Cyclin-G-associated kinase (Homo sapiens, UniProt O14976); experiment: Binding affinity to wild-type human partial length GAK (G13 to Y338 residues) expressed in bacterial expression system by Kinomescan method
T2 sequence (O14976 whole entry): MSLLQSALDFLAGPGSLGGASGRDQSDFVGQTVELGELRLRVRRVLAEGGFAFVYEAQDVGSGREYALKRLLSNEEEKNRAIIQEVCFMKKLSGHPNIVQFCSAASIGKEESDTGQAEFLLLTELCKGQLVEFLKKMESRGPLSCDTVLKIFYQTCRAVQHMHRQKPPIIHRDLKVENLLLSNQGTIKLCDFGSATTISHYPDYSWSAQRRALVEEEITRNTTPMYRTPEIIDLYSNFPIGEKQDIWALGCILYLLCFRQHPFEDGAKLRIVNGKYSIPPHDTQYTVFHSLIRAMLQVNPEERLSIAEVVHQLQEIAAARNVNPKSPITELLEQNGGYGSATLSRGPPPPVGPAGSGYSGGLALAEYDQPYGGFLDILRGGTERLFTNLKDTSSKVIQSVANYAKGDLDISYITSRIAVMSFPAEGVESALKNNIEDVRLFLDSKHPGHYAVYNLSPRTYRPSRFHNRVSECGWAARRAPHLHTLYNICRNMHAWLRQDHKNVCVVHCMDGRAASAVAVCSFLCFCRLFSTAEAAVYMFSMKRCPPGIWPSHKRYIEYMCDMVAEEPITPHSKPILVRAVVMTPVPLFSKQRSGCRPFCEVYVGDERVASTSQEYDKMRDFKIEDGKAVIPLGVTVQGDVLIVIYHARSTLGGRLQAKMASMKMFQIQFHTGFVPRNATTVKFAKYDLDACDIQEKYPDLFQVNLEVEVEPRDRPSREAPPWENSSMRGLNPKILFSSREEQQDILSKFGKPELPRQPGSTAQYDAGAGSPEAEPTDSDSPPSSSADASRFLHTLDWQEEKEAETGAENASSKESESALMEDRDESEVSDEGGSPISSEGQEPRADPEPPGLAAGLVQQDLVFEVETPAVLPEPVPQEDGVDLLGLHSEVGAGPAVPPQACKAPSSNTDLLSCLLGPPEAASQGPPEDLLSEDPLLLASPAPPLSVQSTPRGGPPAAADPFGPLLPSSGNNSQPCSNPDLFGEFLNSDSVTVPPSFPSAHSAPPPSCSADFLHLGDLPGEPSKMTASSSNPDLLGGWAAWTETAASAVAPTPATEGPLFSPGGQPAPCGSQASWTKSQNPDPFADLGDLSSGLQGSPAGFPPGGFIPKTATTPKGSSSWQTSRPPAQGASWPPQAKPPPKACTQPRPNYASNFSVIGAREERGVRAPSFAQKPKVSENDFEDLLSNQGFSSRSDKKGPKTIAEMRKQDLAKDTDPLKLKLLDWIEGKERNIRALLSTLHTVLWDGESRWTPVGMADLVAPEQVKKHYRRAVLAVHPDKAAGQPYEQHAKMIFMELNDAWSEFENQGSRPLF

[5] = target: T1, Epidermal growth factor receptor; format: cell-based
Description: Inhibition of EGFR in human A431 cells assessed as reduction in EGF-stimulated EGFR autophosphorylation preincuabted for 90 mins followed by EGF-stimulation by sandwich-ELISA

[6] = target: T2, Cyclin-G-associated kinase; experiment: Inhibition of tracer 5 binding to human N-terminal nano luciferase-fused GAK expressed in HEK293 cells measured after 2 hrs by nanoBRET assay; format: cell-based
cells [7] = format: ADME, cell-based; settings: Homo sapiens, WS1, 72 h
Description: Cytotoxicity against human WS1 cells measured after 72 hrs by alamar blue assay

[8] = target: T3, Cyclin-G-associated kinase (Homo sapiens) (UniProt O14976); experiment: Inhibition of tracer 5 binding to human N-terminal nano luciferase-fused GAK expressed in HEK293 cells at 5 uM measured after 2 hrs by nanoBRET assay relative to control; format: cell-based
T3 sequence (whole entry): T2 sequence (O14976 whole entry)

cells [9] = format: functional, cell-based; settings: Homo sapiens, 72 h
Description: Antiproliferative activity against human UCH7 cells measured after 72 hrs by alamar blue assay

cells [10] = format: functional, cell-based; settings: Homo sapiens, 72 h; remark: listed apart in the source
Description: Antiproliferative activity against human UMCHOR1 cells measured after 72 hrs by alamar blue assay

cells [11] = format: functional, cell-based; settings: Homo sapiens, 72 h; remark: listed apart in the source
Description: Antiproliferative activity against human CH22 cells measured after 72 hrs by alamar blue assay

cells [12] = format: functional, cell-based; settings: Homo sapiens, 72 h; remark: listed apart in the source
Description: Antiproliferative activity against human UCH12 cells measured after 72 hrs by alamar blue assay

cells [13] = format: functional, cell-based; settings: Homo sapiens, 72 h; remark: listed apart in the source
Description: Antiproliferative activity against human UCH14 cells measured after 72 hrs by alamar blue assay

[14] = target: T3, Cyclin-G-associated kinase (Homo sapiens); experiment: Binding affinity to wild-type human partial length GAK (G13 to Y338 residues) expressed in bacterial expression system at 1 uM by Kinomescan method relative to control
[15] = target: T3, Cyclin-G-associated kinase (Homo sapiens); experiment: Binding affinity to GAK in human SUM159 cell lysates by multiplexed inhibitor bead profiling-based LC-MS/MS analysis; format: subcellular; settings: Lysate
[16] = target: Pyruvate kinase PKM (Homo sapiens) (UniProt P14618); experiment: Binding affinity to PKM in human SUM159 cell lysates by multiplexed inhibitor bead profiling-based LC-MS/MS analysis; format: subcellular; settings: Lysate
Sequence of Pyruvate kinase PKM (Homo sapiens) (P14618 2-531 limits assumed): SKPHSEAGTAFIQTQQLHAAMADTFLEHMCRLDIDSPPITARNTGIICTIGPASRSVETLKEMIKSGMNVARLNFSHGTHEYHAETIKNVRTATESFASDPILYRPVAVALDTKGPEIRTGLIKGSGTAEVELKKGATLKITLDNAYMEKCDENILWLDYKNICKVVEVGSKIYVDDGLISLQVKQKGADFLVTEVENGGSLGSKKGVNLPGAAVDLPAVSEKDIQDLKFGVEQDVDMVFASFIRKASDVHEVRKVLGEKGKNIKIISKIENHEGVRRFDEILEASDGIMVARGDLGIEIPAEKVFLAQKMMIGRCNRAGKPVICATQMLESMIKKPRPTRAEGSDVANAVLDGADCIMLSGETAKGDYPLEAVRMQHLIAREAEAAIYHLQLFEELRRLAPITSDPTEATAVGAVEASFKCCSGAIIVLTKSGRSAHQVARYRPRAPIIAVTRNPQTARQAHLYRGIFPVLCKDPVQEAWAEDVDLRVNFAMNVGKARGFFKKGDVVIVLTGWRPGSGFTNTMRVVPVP

[17] = target: Mitotic checkpoint serine/threonine-protein kinase BUB1 (Homo sapiens) (UniProt O43683); experiment: Binding affinity to BUB1 in human SUM159 cell lysates by multiplexed inhibitor bead profiling-based LC-MS/MS analysis; format: subcellular; settings: Lysate
Sequence of Mitotic checkpoint serine/threonine-protein kinase BUB1 (Homo sapiens) (O43683 whole entry, looked up, the tested form may be a part): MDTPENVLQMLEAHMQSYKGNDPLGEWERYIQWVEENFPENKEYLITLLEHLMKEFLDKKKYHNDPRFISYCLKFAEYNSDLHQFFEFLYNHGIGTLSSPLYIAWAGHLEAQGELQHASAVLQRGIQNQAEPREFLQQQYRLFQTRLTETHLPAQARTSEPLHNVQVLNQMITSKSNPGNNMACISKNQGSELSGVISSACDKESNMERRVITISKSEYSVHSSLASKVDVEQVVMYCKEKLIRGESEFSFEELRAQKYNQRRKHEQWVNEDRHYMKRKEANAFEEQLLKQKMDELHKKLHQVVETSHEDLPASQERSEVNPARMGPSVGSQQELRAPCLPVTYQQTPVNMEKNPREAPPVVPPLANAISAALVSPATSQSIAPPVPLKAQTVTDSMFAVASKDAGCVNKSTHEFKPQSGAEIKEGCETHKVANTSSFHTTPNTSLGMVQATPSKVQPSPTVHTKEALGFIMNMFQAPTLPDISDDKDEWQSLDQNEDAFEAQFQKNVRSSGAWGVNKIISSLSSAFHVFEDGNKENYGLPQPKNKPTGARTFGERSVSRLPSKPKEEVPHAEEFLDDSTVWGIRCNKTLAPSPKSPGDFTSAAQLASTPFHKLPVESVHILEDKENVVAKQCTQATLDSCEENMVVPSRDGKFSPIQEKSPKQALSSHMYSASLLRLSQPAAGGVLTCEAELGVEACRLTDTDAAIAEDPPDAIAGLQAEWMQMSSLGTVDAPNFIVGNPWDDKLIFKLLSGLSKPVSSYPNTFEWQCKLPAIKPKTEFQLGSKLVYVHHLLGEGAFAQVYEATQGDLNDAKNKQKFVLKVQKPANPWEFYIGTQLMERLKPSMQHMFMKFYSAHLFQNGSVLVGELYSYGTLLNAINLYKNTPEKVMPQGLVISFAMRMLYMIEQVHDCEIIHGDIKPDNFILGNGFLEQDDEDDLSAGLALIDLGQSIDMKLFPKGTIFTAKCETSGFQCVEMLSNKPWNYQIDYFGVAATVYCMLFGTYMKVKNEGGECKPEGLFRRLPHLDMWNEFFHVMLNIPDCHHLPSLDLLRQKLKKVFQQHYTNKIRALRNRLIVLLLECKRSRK

[18] = target: T1, Epidermal growth factor receptor; experiment: Binding affinity to wild-type human partial length EGFR (R669 to V1011 residues) expressed in bacterial expression system at 1 uM by Kinomescan method relative to control

For `C#Cc1cccc(Nc2c(C#N)cnc3cc(OC)c(OC)cc23)c1`, which IC50 (cells [1]) is on record?
The IC50 was 17 µM.

What about the IC50 (cells [2]) of the same molecule?
Its IC50 is > 50 µM.

What about the Kd [3] of the same molecule?
The Kd was 0.0018 µM.

What about the Kd [4] of the same molecule?
Its Kd is 0.0026 µM.

And the IC50 [5]?
The IC50 was 0.061 µM.

And the IC50 [6]?
The IC50 was 0.031 µM.

What about the IC50 (cells [7]) of the same molecule?
Its IC50 is > 50 µM.

Which IC50 (cells [1]) does the source give for `CS(=O)(=O)CCNCc1ccc(-c2ccc3ncnc(Nc4ccc(OCc5cccc(F)c5)c(Cl)c4)c3c2)o1` [LAPATINIB] here?
Its IC50 is 3.2 µM.

What about the IC50 (cells [2]) of the same molecule?
The IC50 was > 50 µM.

And the inhibition [8]?
The inhibition was 0%.

What about the IC50 (cells [7]) of the same molecule?
The IC50 was 13 µM.

And the IC50 (cells [9])?
The IC50 was 26 µM.

And the IC50 (cells [10])?
The IC50 was 25 µM.

And the IC50 (cells [11])?
Its IC50 is 25 µM.

What about the IC50 (cells [12]) of the same molecule?
Its IC50 is 33 µM.

What about the IC50 (cells [13]) of the same molecule?
The IC50 was > 50 µM.

And the Activity [14]?
The Activity was < 50%.

With `COc1cc2nccc(Nc3cccc(Br)c3)c2cc1OC` as the molecule, how does the IC50 (cells [1]) read?
The IC50 was 3.6 µM.

What about the IC50 (cells [2]) of the same molecule?
Its IC50 is 7.9 µM.

And the Kd [4]?
Its Kd is 0.24 µM.

And the IC50 [6]?
Its IC50 is 0.51 µM.

What about the IC50 (cells [7]) of the same molecule?
The IC50 was 2.9 µM.

And the IC50 (cells [9])?
The IC50 was > 50 µM.

And the IC50 (cells [11])?
Its IC50 is 6.5 µM.

And the IC50 (cells [12])?
Its IC50 is > 50 µM.

What about the IC50 (cells [13]) of the same molecule?
The IC50 was > 50 µM.

And the Activity [15]?
Its Activity is “Active”.

And the Activity [16]?
Its Activity is “Active”.

What about the Activity [17] of the same molecule?
The Activity was “Active”.

With `COc1cc(N(C)c2ccnc3ccc(C(F)(F)F)cc23)cc(OC)c1OC` as the molecule, how does the IC50 (cells [1]) read?
The IC50 was > 50 µM.

What about the IC50 (cells [2]) of the same molecule?
Its IC50 is > 50 µM.

What about the IC50 [5] of the same molecule?
The IC50 was 2.2 µM.

What about the inhibition [8] of the same molecule?
The inhibition was 7%.

And the IC50 (cells [7])?
Its IC50 is > 50 µM.

What does the source list for `C#Cc1cccc(Nc2ccnc3cc(OCCOC)c(OCCOC)cc23)c1`?
IC50 (cells [1]): 7.6 µM; IC50 (cells [2]): 16 µM; Kd [3]: 0.39 µM; Kd [4]: 1.2 µM; IC50 [5]: 0.34 µM; IC50 (cells [7]): 12 µM

Which results are given for `COc1cc(Nc2ccnc3ccc(C(F)(F)F)cc23)cc(OC)c1OC`?
IC50 (cells [1]): > 50 µM; IC50 (cells [2]): 33 µM; IC50 [5]: > 50 µM; IC50 (cells [7]): 21 µM; Activity [18]: < 50%

Which results are given for `COc1cc2ncnc(Nc3cc(OC)c(OC)c(OC)c3)c2cc1OC`?
IC50 (cells [1]): 7.3 µM; IC50 (cells [2]): > 10 µM; Kd [4]: 0.01 µM; IC50 [6]: 0.35 µM; IC50 (cells [7]): 28 µM

Which IC50 (cells [1]) does the source give for `COc1cc2ncnc(Nc3ccc(OCc4cccc(F)c4)c(Cl)c3)c2cc1OC` here?
The IC50 was 13 µM.

And the IC50 (cells [2])?
Its IC50 is > 50 µM.

What about the Kd [3] of the same molecule?
The Kd was 0.0013 µM.

And the Kd [4]?
The Kd was 5 µM.

And the IC50 [5]?
The IC50 was < 0.015 µM.

And the inhibition [8]?
Its inhibition is 12%.

And the IC50 (cells [7])?
The IC50 was > 10 µM.

Which IC50 (cells [1]) does the source give for `COCCOc1cc2ncnc(Nc3cc(OC)c(OC)c(OC)c3)c2cc1OCCOC` here?
The IC50 was 25 µM.

And the IC50 (cells [2])?
Its IC50 is > 50 µM.

What about the Kd [3] of the same molecule?
Its Kd is 0.053 µM.

And the Kd [4]?
Its Kd is 0.15 µM.

And the IC50 [5]?
Its IC50 is 2.4 µM.

What about the IC50 [6] of the same molecule?
Its IC50 is 2.6 µM.

What about the IC50 (cells [7]) of the same molecule?
Its IC50 is > 50 µM.

Which IC50 (cells [1]) does the source give for `COc1cc(Nc2ncnc3ccc(C(F)(F)F)cc23)cc(OC)c1OC` here?
Its IC50 is 50 µM.

And the IC50 (cells [2])?
Its IC50 is > 50 µM.

What about the Kd [3] of the same molecule?
Its Kd is 6.1 µM.

What about the Kd [4] of the same molecule?
Its Kd is 0.19 µM.

What about the IC50 [5] of the same molecule?
The IC50 was > 50 µM.

What about the inhibition [8] of the same molecule?
The inhibition was 60%.

What about the IC50 (cells [7]) of the same molecule?
Its IC50 is 45 µM.
